For series [1] the following is noted: patient undergoing continuous cyclic peritoneal dialysis; severe recurrent metabolic alkalemia secondary to it; cited from earlier work.
In a further series the test system is brain tissue. As to conditions: rat, aqueous 20 mM/l, parenteral.

Structures are written as SMILES.

With `CC(O)C(=O)O` (racemic) [d,l-lactate], the “adverse effect of inclusion in routine dialysis fluids” value in series [1] was “encephalopathy”. Take `C[C@@H](O)C(=O)O` [d-lactate]: in the series with brain tissue, the “effect on brain tissue” value is “swelling of brain tissue is observed”; the “outcome with continued administration (coma, cerebral edema, death)” value was “coma develops, the cerebral edema worsens and death ensues”. For the compound `C[C@H](O)C(=O)O` [l-lactate], in the series on brain tissue, the “outcome with continued administration (coma, cerebral edema, death)” value is given as “does not cause coma or death”.

Source of the values: patent publication USRE38604E1, “Fluid therapy with L-lactate and/or pyruvate anions” (BTG International Limited, priority 1984, dated 2004).
